Here are results for 4 compounds from BindingDB's records for doi:10.1016/s0960-894x(02)00995-2 (The Oxford Centre For Molecular Sciences and The Dyson …, 2003).

Each structure is given as a SMILES string.

This assay addresses T1, Chymotrypsin-like elastase family member 2A (Sus scrofa, UniProt P08419).
T1 sequence (P08419 whole entry): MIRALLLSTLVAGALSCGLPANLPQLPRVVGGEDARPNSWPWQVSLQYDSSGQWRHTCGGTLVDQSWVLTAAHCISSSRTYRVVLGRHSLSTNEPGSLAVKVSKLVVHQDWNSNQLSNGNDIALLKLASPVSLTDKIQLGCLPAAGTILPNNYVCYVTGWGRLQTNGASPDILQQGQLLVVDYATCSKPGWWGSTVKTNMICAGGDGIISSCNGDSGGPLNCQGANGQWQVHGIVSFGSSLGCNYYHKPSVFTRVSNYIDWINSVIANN
Put plainly: ChEBML_152310. From the text: Inhibitory concentration against porcine pancreatic elastase (PPE)
As for `Cc1ccc(S(=O)(=O)N2CCN(Cc3ccccc3)C(=O)[C@@H]2CC(C)C)cc1` [(S)-1-Benzyl-3-isobutyl-4-(toluene-4-sulfonyl)-piperazin-2-one], the half-maximal inhibitory concentration (IC50) – broadly, the concentration that gives 50% inhibition – stood at 62 µM.

`CC(C)C[C@H]1C(=O)N(Cc2ccccc2)CCN1S(C)(=O)=O` [(S)-1-Benzyl-3-isobutyl-4-methanesulfonyl-piperazin-2-one] yielded a concentration for half-maximal inhibition (IC50) of 2000 µM. With `CC(C)C[C@H]1C(=O)N(S(C)(=O)=O)CCN1C(=O)OC(C)(C)C` [(S)-2-Isobutyl-4-methanesulfonyl-3-oxo-piperazine-1-carboxylic acid tert-butyl ester] the figure was 923 µM. `CCC(C)[C@H]1C(=O)N(S(=O)(=O)c2ccc(C)cc2)CCN1C(=O)OC(C)(C)C` (stereo partly drawn) [(S)-2-sec-Butyl-3-oxo-4-(toluene-4-sulfonyl)-piperazine-1-carboxylic acid tert-butyl ester] yielded an IC50 of 293 µM.
